Data on 19 compounds can be found in US9326985B2, “Heteroaryl pyridone and aza-pyridone amide compounds” (Genentech, Inc., priority 2013, dated 2016).

The subject of experiment [1] is CD69 by B lymphocytes in human whole blood activated with goat F(ab')2 anti-human IgM. The experiment can be described thus: CD69 Whole Blood Assay (CD69 Hu Blood FACS). Format: cell-based. The note with it: Lymphocyte, CD69 positive of CD20 positive cells. The gist of the method: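 Heparinized human whole blood from healthy drug-free non-smokers preincubated 30 min at 37 °C with ten-point 3-fold compound dilutions, then stimulated with goat F(ab′)2 anti-human IgM (50 μg/ml final) for 20 h. CD69 on B cells read by flow cytometry as mean fluorescence intensity.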

Experiment [2] has as its target T1, full length human wildtype Btk (Homo sapiens, UniProt Q06187).
T1 construct: V5 (C); 6xHis (C); made in house; host or cells: Sf9 insect cells (baculovirus, pFastBac)
The experiment can be described thus: Biochemical Btk Assay (BTK LC3K). As to the method: A generalized procedure for a standard biochemical Btk, Kinase Assay that can be used to test Formula I compounds is as follows. A master mix minus Btk enzyme is prepared containing 1× Cell Signaling kinase buffer (25 mM Tris-HCl, pH 7.5, 5 mM beta-glycerophosphate, 2 mM dithiothreitol, 0.1 mM Na3VO4, 10 mM MgCl2), 0.5 μM Promega PTK Biotinylated peptide substrate 2, and 0.01% BSA. A master mix plus Btk enzyme is prepared containing 1× Cell Signaling kinase buffer, 0.5 μM (micromolar) PTK Biotinylated peptide substrate 2, 0.01% BSA, and 100 ng/well (0.06 mU/well) Btk enzyme. Btk enzyme is prepared as follows: full length human wildtype Btk (accession number NM-000061) with a C-terminal V5 and 6×His tag was subcloned into pFastBac® vector (Invitrogen/Life Technologies) for making baculovirus carrying this epitope-tagged Btk. […] Passage 3 virus is used to infect Sf9 cells to overexpress the recombinant Btk protein. The Btk protein is then purified to homogeneity using Ni-NTA column. […] A solution of 200 μM ATP is prepared in water and adjusted to pH 7.4 with 1N NaOH. A quantity of 1.25 μL (microliter) of compounds in 5% DMSO is transferred to a 96-well ½ area Costar polystyrene plate. Compounds are tested singly and with an 11-point dose-responsive curve (starting concentration is 10 μM; 1:2 dilution). A quantity of 18.75 μL of master mix minus enzyme (as a negative control) and master mix plus enzyme is transferred to appropriate wells in 96-well ½ area costar polystyrene plate. 5 μL of 200 μM ATP is added to that mixture in the 96-well ½ area Costar polystyrene plate for final ATP concentration of 40 μM. The reaction is allowed to incubate for 1 hour at room temperature. The reaction is stopped with Perkin Elmer 1× detection buffer containing 30 mM EDTA, 20 nM SA-APC, and 1 nM PT66 Ab. […] IC50 values are subsequently calculated. Alternatively, the Lanthascreen assay can be used to evaluate Btk activity through quantification of its phosphorylated peptide product. The FRET (Fluorescence Resonance Energy Transfer) that occurs between the fluorescein on the peptide product and the terbium on the detection antibody decreases with the addition of inhibitors of Btk that reduce the phosphorylation of the peptide. In a final reaction volume of 25 uL, Btk (h) (0.1 ng/25 ul reaction) is incubated with 50 mM Hepes pH 7.5, 10 mM MgCl2, 2 mM MnCl2, 2 mM DTT, 0.2 mM NaVO4, 0.01% BSA, and 0.4 uM fluorescein poly-GAT. […] After incubation for 60 minutes at room temperature, the reaction is stopped by the addition of a final concentration of 2 nM Tb-PY20 detection antibody in 60 mM EDTA for 30 minutes at room temperature.

T1 sequence (Q06187 whole entry): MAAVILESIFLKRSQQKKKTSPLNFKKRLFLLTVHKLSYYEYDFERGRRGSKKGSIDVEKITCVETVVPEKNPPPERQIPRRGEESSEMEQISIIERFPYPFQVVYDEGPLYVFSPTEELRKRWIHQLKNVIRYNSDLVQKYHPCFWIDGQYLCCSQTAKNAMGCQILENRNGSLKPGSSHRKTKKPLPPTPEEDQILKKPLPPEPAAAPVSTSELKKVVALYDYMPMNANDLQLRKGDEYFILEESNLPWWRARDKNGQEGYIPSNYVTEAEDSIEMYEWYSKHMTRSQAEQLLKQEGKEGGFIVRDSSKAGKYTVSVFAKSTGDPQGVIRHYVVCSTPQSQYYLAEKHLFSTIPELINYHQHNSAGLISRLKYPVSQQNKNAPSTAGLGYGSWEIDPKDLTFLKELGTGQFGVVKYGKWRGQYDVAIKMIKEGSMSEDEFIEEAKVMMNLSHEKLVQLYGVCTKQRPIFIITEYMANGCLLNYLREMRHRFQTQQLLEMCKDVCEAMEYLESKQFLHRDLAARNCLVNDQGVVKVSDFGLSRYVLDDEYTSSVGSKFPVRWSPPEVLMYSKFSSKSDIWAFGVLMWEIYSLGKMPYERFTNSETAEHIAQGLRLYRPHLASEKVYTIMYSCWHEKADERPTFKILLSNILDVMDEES

In experiment [1] (Table 2, anti-IgM stimulation), `Cn1cc(-c2ccnc(N3CCc4c(sc5c4CC(C)(C)C5)C3=O)c2CO)cc(NC(=O)C2CC2)c1=O` [Compound 131, N-[5-[2-(7,7-dimethyl-4-oxo-1,2,6,8-tetrahydrocyclopenta[3,4]thieno[1,3-c]pyridin-3-yl)-3-(hydroxymethyl)-4-pyridyl]-1-methyl-2-oxo-3-pyridyl]cyclopropanecarboxamide] showed an IC50 of 0.24 µM. In experiment [2] (Table 2), this compound had a Ki of 0.00706 µM.
Take `Cn1cc(-c2ccnc(N3CCn4c(cc5c4CC(C)(C)C5)C3=O)c2CO)cc(NC(=O)CN2CCOCC2)c1=O` [Compound 105, N-[5-[2-(7,7-dimethyl-4-oxo-1,2,6,8-tetrahydrocyclopenta[3,4]pyrrolo[3,5-b]pyrazin-3-yl)-3-(hydroxymethyl)-4-pyridyl]-1-methyl-2-oxo-3-pyridyl]-2-morpholino-acetamide]: in experiment [1] (Table 1, anti-IgM stimulation), the IC50 was above 5 µM. The compound also displayed a Ki in experiment [2] (Table 1) above 0.0556 µM.
For `Cc1cc(C(=O)Nc2cc(-c3ccnc(N4CCn5c(cc6c5CC(C)(C)C6)C4=O)c3CO)cn(C)c2=O)nn1C` [Compound 112, N-[5-[2-(7,7-dimethyl-4-oxo-1,2,6,8-tetrahydrocyclopenta[3,4]pyrrolo[3,5-b]pyrazin-3-yl)-3-(hydroxymethyl)-4-pyridyl]-1-methyl-2-oxo-3-pyridyl]-1,5-dimethyl-pyrazole-3-carboxamide], in that order: above 5.8 µM and above 0.5 µM.
As to `Cn1cc(-c2ccnc(-n3ncc4cc(C(C)(C)C)cc(F)c4c3=O)c2CO)cc(NC(=O)[C@H]2CC23CC3)c1=O` (single isomer, unassigned) [Compound 162], the IC50 in experiment [1] (Table 2, anti-IgM stimulation) amounted to 0.786 µM. The compound also yielded a Ki in experiment [2] (Table 2) of 0.005 µM.
For `CN1CC[C@]2(C[C@H]2C(=O)Nc2cc(-c3ccnc(-n4ncc5cc(C(C)(C)C)cc(F)c5c4=O)c3CO)cn(C)c2=O)C1` (single isomer, unassigned) [Compound 169], in that order: above 4.8 µM and 0.0384 µM.
For `CCOC1C[C@H]1C(=O)Nc1cc(-c2ccnc(N3CCn4c(cc5c4CC(C)(C)C5)C3=O)c2CO)cn(C)c1=O` (single isomer, unassigned) [Compound 143], inhibition in experiment [1] (Table 2, anti-IgM stimulation) was half-maximal at 2.2 µM (IC50). This compound also registered a Ki in experiment [2] (Table 2) of 0.053 µM.
In the same order, the values of `Cn1cc(-c2cc(F)cc(N3CCc4c(cc5n4CCCC5)C3=O)c2CO)cc(NC(=O)[C@@H]2C[C@@H]2F)c1=O` [Compound 167, (1S,2S)-2-fluoro-N-[5-[5-fluoro-2-(hydroxymethyl)-3-(1-oxo-3,4,6,7,8,9-hexahydropyrido[3,4-b]indolizin-2-yl)phenyl]-1-methyl-2-oxo-3-pyridyl]cyclopropanecarboxamide] are 0.245 µM and 0.0024 µM.
`Cn1cc(-c2ccnc(N3CCc4cc(OC(F)F)cc(F)c4C3=O)c2CO)cc(NC(=O)[C@@H]2C[C@@H]2F)c1=O` [Compound 151, (1S,2S)—N-[5-[2-[6-(difluoromethoxy)-8-fluoro-1-oxo-3,4-dihydroisoquinolin-2-yl]-3-(hydroxymethyl)-4-pyridyl]-1-methyl-2-oxo-3-pyridyl]-2-fluoro-cyclopropanecarboxamide] had an IC50 in experiment [1] (Table 2, anti-IgM stimulation) above 5.3 µM. Moreover, in experiment [2] (Table 2), the affinity, expressed as Ki, was 0.066 µM.
Regarding `CCC(=O)Nc1cc(-c2ccnc(-n3ncc4cc(C(C)(C)C)cc(F)c4c3=O)c2CO)cn(C)c1=O` [Compound 126, N-[5-[2-(6-tert-butyl-8-fluoro-1-oxo-phthalazin-2-yl)-3-(hydroxymethyl)-4-pyridyl]-1-methyl-2-oxo-3-pyridyl]propanamide], in experiment [1] (Table 1, anti-IgM stimulation), the IC50 turned out to be 0.527 µM. The compound further had a Ki in experiment [2] (Table 1) of 0.00701 µM.
In the case of `CN1CCC2(CC1)C[C@@H]2C(=O)Nc1cc(-c2ccnc(-n3ncc4cc(C(C)(C)C)cc(F)c4c3=O)c2CO)cn(C)c1=O` (single isomer, unassigned) [Compound 166], half-maximal inhibition in experiment [1] (Table 2, anti-IgM stimulation) (IC50) required 1.6 µM. The inhibition constant Ki in experiment [2] (Table 2) came to 0.0054 µM.
Compound `Cn1cc(-c2ccnc(-c3nc4cc(C(C)(C)C)ccc4n3C)c2CO)cc(NC(=O)C2CC2)c1=O` [Compound 164, N-[5-[2-(5-tert-butyl-1-methyl-benzimidazol-2-yl)-3-(hydroxymethyl)-4-pyridyl]-1-methyl-2-oxo-3-pyridyl]cyclopropanecarboxamide] had an IC50 in experiment [1] (Table 2, anti-IgM stimulation) above 10.6 µM. In experiment [2] (Table 2), this compound returned a Ki above 0.5 µM.
For `Cn1cc(-c2ccnc(N3CCn4c(cc5c4CC(C)(C)C5)C3=O)c2CO)cc(NC(=O)c2ccccc2)c1=O` [Compound 114, N-[5-[2-(7,7-dimethyl-4-oxo-1,2,6,8-tetrahydrocyclopenta[3,4]pyrrolo[3,5-b]pyrazin-3-yl)-3-(hydroxymethyl)-4-pyridyl]-1-methyl-2-oxo-3-pyridyl]benzamide], the IC50 in experiment [1] (Table 1, anti-IgM stimulation) was above 5.4 µM. In experiment [2] (Table 1), the inhibition constant Ki worked out at 0.236 µM.
In experiment [1] (Table 2, anti-IgM stimulation), `Cn1cc(-c2ccnc(N3CCc4cc(OC(F)(F)F)ccc4C3=O)c2CO)cc(NC(=O)C2CC2)c1=O` [Compound 158, N-[5-[3-(hydroxymethyl)-2-[1-oxo-6-(trifluoromethoxy)-3,4-dihydroisoquinolin-2-yl]-4-pyridyl]-1-methyl-2-oxo-3-pyridyl]cyclopropanecarboxamide] displayed an IC50 above 4.4 µM. For the same compound, affinity in experiment [2] (Table 2) was put at a Ki of 0.262 µM.
For `CN1CC[C@@]2(C[C@H]2C(=O)Nc2cc(-c3ccnc(-n4ncc5cc(C(C)(C)C)cc(F)c5c4=O)c3CO)cn(C)c2=O)C1` (single isomer, unassigned) [Compound 175], in that order: above 4.8 µM and 0.0076 µM.
The compound `CN(C)C(=O)C1C[C@H]1C(=O)Nc1cc(-c2ccnc(-n3ncc4cc(C(C)(C)C)cc(F)c4c3=O)c2CO)cn(C)c1=O` (single isomer, unassigned) [Compound 170, N2-[5-[2-(6-tert-butyl-8-fluoro-1-oxo-phthalazin-2-yl)-3-(hydroxymethyl)-4-pyridyl]-1-methyl-2-oxo-3-pyridyl]-N1,N1-dimethyl-cyclopropane-1,2-dicarboxamide] had an IC50 in experiment [1] (Table 2, anti-IgM stimulation) above 4.8 µM. In experiment [2] (Table 2), this compound gave a Ki of 0.025 µM.
In experiment [1] (Table 2, anti-IgM stimulation), `Cn1cc(-c2ccnc(-c3nc4ccc(C(C)(C)C)cc4n3C)c2CO)cc(NC(=O)C2CC2)c1=O` [Compound 160, N-[5-[2-(6-tert-butyl-1-methyl-benzimidazol-2-yl)-3-(hydroxymethyl)-4-pyridyl]-1-methyl-2-oxo-3-pyridyl]cyclopropanecarboxamide] registered an IC50 above 3.5 µM. In experiment [2] (Table 2), this compound came in with a Ki of 0.0257 µM.
In the same order, the values of `Cn1cc(-c2cc(F)cc(N3CCn4c(cc5c4CC(C)(C)C5)C3=O)c2CO)cc(NC(=O)C2CC2)c1=O` [Compound 130, N-[5-[3-(7,7-dimethyl-4-oxo-1,2,6,8-tetrahydrocyclopenta[3,4]pyrrolo[3,5-b]pyrazin-3-yl)-5-fluoro-2-(hydroxymethyl)phenyl]-1-methyl-2-oxo-3-pyridyl]cyclopropanecarboxamide] are 0.035 µM and 0.00129 µM.
In the same order, the values of `CCOC1C[C@@H]1C(=O)Nc1cc(-c2ccnc(N3CCn4c(cc5c4CC(C)(C)C5)C3=O)c2CO)cn(C)c1=O` (mixture of isomers) [Compound 145, (1S)—N-[5-[2-(7,7-dimethyl-4-oxo-1,2,6,8-tetrahydrocyclopenta[3,4]pyrrolo[3,5-b]pyrazin-3-yl)-3-(hydroxymethyl)-4-pyridyl]-1-methyl-2-oxo-3-pyridyl]-2-ethoxy-cyclopropanecarboxamide] are 0.636 µM and 0.011 µM.
Compound `CN(C)C(=O)C1C[C@@H]1C(=O)Nc1cc(-c2ccnc(-n3ncc4cc(C(C)(C)C)cc(F)c4c3=O)c2CO)cn(C)c1=O` (single isomer, unassigned) [Compound 171, N2-[5-[2-(6-tert-butyl-8-fluoro-1-oxo-phthalazin-2-yl)-3-(hydroxymethyl)-4-pyridyl]-1-methyl-2-oxo-3-pyridyl]-N1,N1-dimethyl-cyclopropane-1,2-dicarboxamide] displayed an IC50 in experiment [1] (Table 2, anti-IgM stimulation) above 4.8 µM. Further, in experiment [2] (Table 2), the affinity corresponds to a Ki of 0.0915 µM.

By IC50 is commonly meant the concentration that inhibits the measured activity by half. A higher IC50 goes with weaker potency. Broadly, the Ki is a dissociation constant, usually derived from enzyme kinetics or from competition with a known ligand.
